# Test results as given in patent US20110160054A1, “Pesticidal Mixtures Comprising Cyanosulfoximine Compounds and Spinetoram” (BASF SE, priority 2008, published 2011).
# Read-outs that look alike come from different tables or passages of the source.
# Legend:
# Assay type in all cases: cell-based
# Conditions in all cases: single compound, 7 days after inoculation
# Botrytis cinerea = assay: Activity against the grey mold Botrytis cinerea in the microtiterplate test (Botrci)
# Septoria tritici = assay: Activity against leaf blotch on wheat caused by Septoria tritici, microtiter test (Septtr)
# Pyricularia oryzae = tested on: Pyricularia oryzae
# Phytophthora infestans = tested on: Phytophthora infestans
compound,measurement,setting,value
"Fc1ccc([C@]2(Cn3cncn3)O[C@H]2c2ccccc2Cl)cc1 (racemic) [Epoxiconazol, epoxiconazole]",Observed efficacy,Botrytis cinerea; 0.25 ppm,25%
"CO/C=C(/C(=O)OC)c1ccccc1Oc1cc(Oc2ccccc2C#N)ncn1 [Azoxystrobin, azoxystrobin]",Observed efficacy,Septoria tritici; 0.063 ppm,56%
"COC(=O)Nc1nc2ccccc2[nH]1 [Carbendazim, carbendazim]",Observed efficacy,Pyricularia oryzae; 0.25 ppm,15%
"Cc1ccc(-c2c(Cl)nc(C#N)n2S(=O)(=O)N(C)C)cc1 [Cyazofamid, cyazofamid]",Observed efficacy,Phytophthora infestans; 0.063 ppm,67%
"CC1(C(=O)Nc2ccc(O)c(Cl)c2Cl)CCCCC1 [Fenhexamid, fenhexamid]",Observed efficacy,Septoria tritici; 16 ppm,33%
"OC(Cc1ccccc1Cl)(Cn1nc[nH]c1=S)C1(Cl)CC1 (centres unmarked) [Prothioconazol, prothioconazole]",Observed efficacy,Botrytis cinerea; 0.063 ppm,19%
"COC(=O)N(OC)c1ccccc1COc1ccn(-c2ccc(Cl)cc2)n1 [Pyraclostrobin, pyraclostrobin]",Observed efficacy,Botrytis cinerea; 0.25 ppm,4%
CC(C)CC(C)c1sccc1NC(=O)c1cn(C)nc1C(F)(F)F (centres unmarked) [penthiopyrad],Observed efficacy,Pyricularia oryzae; 0.25 ppm,6%
same,Observed efficacy,Pyricularia oryzae; 1 ppm,55%
same,Observed efficacy,Botrytis cinerea; 0.063 ppm,32%
same,Observed efficacy,Botrytis cinerea; 0.25 ppm,45%
Cn1cc(C(=O)Nc2ccccc2C2CC2C2CC2)c(C(F)F)n1 (centres unmarked) [sedaxane],Observed efficacy,Botrytis cinerea; 0.25 ppm,41%
Spinetoram,Observed efficacy,Pyricularia oryzae; 4 ppm,2%
same,Observed efficacy,Pyricularia oryzae; 16 ppm,2%
same,Observed efficacy,Pyricularia oryzae; 63 ppm,34%
same,Observed efficacy,Septoria tritici; 16 ppm,0%
same,Observed efficacy,Septoria tritici; 63 ppm,4%
same,Observed efficacy,Phytophthora infestans; 4 ppm,2%
same,Observed efficacy,Phytophthora infestans; 16 ppm,24%
same,Observed efficacy,Botrytis cinerea; 0.25 ppm,1%
same,Observed efficacy,Botrytis cinerea; 4 ppm,1%
same,Observed efficacy,Botrytis cinerea; 16 ppm,0%
same,Observed efficacy,Botrytis cinerea; 63 ppm,21%
mancozeb,Observed efficacy,Botrytis cinerea; 16 ppm,46%
propineb,Observed efficacy,Septoria tritici; 1 ppm,25%
same,Observed efficacy,Phytophthora infestans; 1 ppm,23%
